The record followed here is PubChem BioAssay (NCI).

Each structure is given as a SMILES string.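 Step 1: Grow cells in 96-well plates. Step 2: Expose to compound for 48 hours at 5 concentrations. Step 3: Interpolate endpoints linearly; if unreached, use highest concentration. GI50: concentration for 50% inhibition of growth. At the TGI there is no net growth.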 Where only a bound is given, the exact number is not on record here.

What all share (assay): inhibition of tumour cell growth, NCI panel, 48 h
The test system of assay [1] is 786-0 renal.
Assay [2] has as its system COLO 205 colon.
Assay [3] concerns HCC-2998 colon.
In assay [4] the test system is HCT-15 colon.
The subject of assay [5] is HOP-62 NSCLC.
In assay [6] the test system is KM12 colon.
Assay [7] deals with MCF7 breast.
Assay [8] has as its system NCI-H226 lung.
The subject of assay [9] is T-47D breast.
For assay [10], the system named is EKVX NSCLC.

Turning to `Cc1cc(N(CCCl)CCCl)ccc1C=Nc1ccc2ccccc2c1`, the GI50 in assay [1] is 12.7 µM; in assay [2], 13.2 µM; in [3], 27.9 µM; in assay [4], 27.6 µM; in assay [5], 25.2 µM; in assay [6], 66.8 µM. Besides, the GI50 is 2.36 µM in [7], 0.297 µM in assay [8] and 3.32 µM in [9]. Further, the TGI was over 100 µM in assay [1]; over 82.6 µM in [2]; over 100 µM in assay [3]; over 100 µM in [4]; over 100 µM in [5]; over 100 µM in assay [6]. Also, the TGI was over 100 µM in assay [7], 1.82 µM in assay [8] and over 100 µM in [9].
Turning to `COc1ccc(/C=C/C(=O)c2ccc(OC)c(OC)c2)cc1O`, the GI50 in assay [1] is 14.2 µM; in assay [2], 12.5 µM; in assay [3] it was 9.1 µM; in [4], 3.41 µM; in [5], 3.61 µM; in [6] it was 3.57 µM. In addition, the results for the GI50 in assay [7], in assay [8] and in assay [9] were 4.58 µM, 11.1 µM and 5.74 µM, respectively. In addition, the TGI is 65.8 µM in assay [1]; 25 µM in [2]; 22.1 µM in assay [3]; 32.9 µM in assay [4]; 14.5 µM in [5]; 13.3 µM in [6]. The TGI in assay [7] came out at 16.2 µM; in [8], 25.4 µM; in assay [9] it was 25.5 µM.
On to `Cc1ccc(Cl)c(Nc2ccccc2C(=O)O)c1Cl`, for which the GI50 in assay [1] was 23 µM; in assay [2], 22.2 µM; in [3], 26.6 µM; in assay [4], 22.7 µM; in assay [5] it was 31.3 µM; in [6] it was 29.3 µM. For the same compound, the GI50 was 34.2 µM in assay [7], 28 µM in assay [8] and 33.4 µM in [9]. Besides, the TGI in [1] was 64.3 µM; in [2], 43 µM; in [3], 66.4 µM; in assay [4] it was 54.2 µM; in assay [5] it was over 100 µM; in [6], 77.1 µM. In addition, the TGI is over 100 µM in [7], 82.4 µM in assay [8] and over 100 µM in assay [9].
In the case of `COc1cc(-c2c(C#N)c(N)nc(N3CCOCC3)c2C#N)cc(OC)c1OC`, the GI50 in assay [1] was over 100 µM; in assay [2] it was 5.39 µM; in assay [10] it was over 100 µM; in [4], over 100 µM; in assay [5], 30.9 µM; in [6], over 100 µM. The GI50 in assay [7] is over 100 µM; in assay [8], over 100 µM; in assay [9], 15.1 µM. In addition, the TGI in assay [1], in [2], in assay [10], in assay [4], in [5] and in assay [6] was over 100 µM throughout. Also, the TGI in assay [7], in [8] and in assay [9] was over 100 µM throughout.
As to `CC(=O)Nc1ccc(COC(O)CN2CCCCC2)cc1[N+](=O)[O-]` (configuration not stated), the TGI in assay [1], in assay [2], in assay [3], in [4], in assay [6] and in assay [7] was over 100 µM each time. In addition, the TGI in assay [8] and in assay [9] was over 100 µM each time.
On to `CC(C)(C)c1c2c(c(C(C)(C)C)c3c1OCN(Cc1ccccc1)C3)OCN(Cc1ccccc1)C2`, for which the TGI came out at 27.7 µM in assay [1]; 26.6 µM in assay [2]; 41.5 µM in assay [10]; 22.3 µM in assay [3]; 33.3 µM in [4]; 53.5 µM in [5]. The TGI in assay [6] was 57.8 µM; in [7], 61.6 µM; in assay [9] it was over 100 µM.
Regarding `CN(Cc1cc(Cl)cc(Cl)c1O)Cc1c(O)ccc2ccccc12`, the TGI in [1] worked out at 48.4 µM; in assay [2], 32 µM; in assay [10], 46.4 µM; in assay [4], 38.9 µM; in assay [5], 38.7 µM; in [6] it was 42.8 µM. In addition, the values for the TGI in [7], in assay [8] and in assay [9] were 33.2 µM, 37.7 µM and 43 µM, respectively.
For the compound `Cn1cc(C2=C(c3cn(C)c4ccccc34)C(=O)NC2=O)c2ccccc21`, the GI50 in assay [1] is 1.52 µM; in [2] it was 1.1 µM; in assay [3] it was over 25 µM; in assay [4] it was 0.729 µM; in assay [5], 1.92 µM; in assay [6], 0.948 µM. The values for the GI50 in assay [7], in assay [8] and in [9] were 0.72 µM, 9.19 µM and 1.8 µM, respectively. Further, the TGI in [1], in [2], in assay [3], in assay [4], in [5] and in [6] was over 25 µM each time. For the same compound, the TGI in assay [7], in assay [8] and in [9] was over 25 µM throughout.
With `NCOC(=O)Cc1ccc(Br)cc1`, the TGI in assay [1], in assay [2], in assay [10], in [4], in assay [5] and in assay [7] was over 100 µM each time. The TGI in assay [8] and in assay [9] was over 100 µM throughout.
Take `O=C1c2cc([N+](=O)[O-])ccc2-c2ccc3c4ccc5c6c(ccc(c7ccc1c2c73)c64)C(=O)c1cc([N+](=O)[O-])ccc1-5`: the TGI in assay [1], in assay [2], in assay [10], in assay [4], in assay [5] and in assay [6] was over 100 µM each time. For the same compound, the TGI in [7], in assay [8] and in assay [9] was over 100 µM in each case.
For `NCC1OC(OC2C(CO)OC(OC3C(O)C(N)CC(N)C3OC3OC(CO)C(O)CC3N)C2O)C(N)C(O)C1OC1OC(CO)C(O)C(O)C1O` (configuration not stated), the GI50 in assay [1], in assay [2], in assay [10], in [4], in assay [5] and in [7] was over 50 µg/mL in each case. For the same compound, the GI50 in assay [8] and in [9] was over 50 µg/mL in each case. The TGI in assay [1], in assay [2], in assay [10], in assay [4], in assay [5] and in assay [7] was over 50 µg/mL in each case. For the same compound, the TGI in assay [8] and in assay [9] was over 50 µg/mL throughout.
In the case of `Cn1c(=O)c(Oc2ccc(F)cc2F)cc2cnc(NC3CCS(=O)(=O)CC3)nc21`, the GI50 in [1] was over 25 µM; in [2], over 25 µM; in assay [3], over 25 µM; in assay [4], over 25 µM; in assay [5], over 14.8 µM; in assay [6], over 25 µM. In addition, the values for the GI50 in assay [7], in assay [8] and in assay [9] were over 25 µM, over 25 µM and over 19.8 µM, respectively. Further, the TGI in [1], in [2], in assay [3], in [4], in assay [5] and in assay [6] was over 25 µM throughout. In addition, the TGI in assay [7], in assay [8] and in assay [9] was over 25 µM in each case.
In the case of `Cc1cc(C(C)(C)C)cc(CNC2CCCCC2)c1O`, the TGI came out at 30 µM in assay [1]; 31.5 µM in assay [2]; 31.4 µM in assay [10]; 10.4 µM in assay [3]; 31.4 µM in [4]; 47.6 µM in assay [5]. Moreover, the figures for the TGI in assay [6], in [7] and in assay [9] were 46.3 µM, 32.3 µM and 32.8 µM, respectively.
Take `COC1=CC(c2ccc[nH]2)=N/C1=C\c1[nH]c(C)c(C(=O)CCCCC(=O)Oc2ccc3c(c2)CCC2C3CC[C@]3(C)[C@@H](O)CC[C@@H]23)c1C` (some centres not stated): the GI50 was 5.64 µM in assay [1]; over 100 µM in [2]; over 100 µM in assay [3]; 3.56 µM in assay [4]; 17.3 µM in [5]; 6.66 µM in assay [6]. Besides, the GI50 in [7] was 0.863 µM; in assay [8] it was 8.88 µM; in assay [9], 1.39 µM. Besides, the TGI in [1], in assay [2], in assay [3], in [4], in assay [5] and in assay [6] was over 100 µM each time. The figures for the TGI in assay [7], in [8] and in [9] were over 100 µM, over 100 µM and 4.25 µM, respectively.
With `COc1ccc(C2=NN(C(=O)c3cc(OC)c(OC)c(OC)c3)C(c3ccc(N(C)C)cc3)C2)cc1` (configuration not stated), the GI50 in assay [1] is 0.295 µM; in assay [10] it was 1.43 µM; in [3], 0.357 µM; in [4], 0.426 µM; in assay [5], 0.57 µM; in assay [6] it was 0.46 µM. In addition, the figures for the GI50 in assay [7], in assay [8] and in assay [9] were 0.318 µM, 1.28 µM and 0.535 µM, respectively. Besides, the TGI in assay [10] is over 100 µM; in [3], 2.69 µM; in assay [4], over 100 µM; in assay [6], over 100 µM; in assay [8] it was over 100 µM; in [9] it was over 100 µM.
Take `CC(=O)c1cc(C(=O)c2ccc3c(c2)Sc2ccccc2N3)c2cc(C)ccn12`: the GI50 in assay [1] is 0.0965 µM; in assay [2] it was 0.0598 µM; in assay [10], 0.0873 µM; in [3], 0.247 µM; in assay [4], 0.0704 µM; in assay [5], 0.146 µM. In addition, the GI50 in assay [6] was 0.0425 µM; in [7], 0.0345 µM; in [8] it was 3.91 µM. Besides, the TGI in assay [1] was over 100 µM; in [2], 0.346 µM; in assay [10] it was over 100 µM; in assay [3], 20.6 µM; in assay [4], over 100 µM; in [5], over 100 µM. Further, the TGI in [6], in assay [7] and in [8] was over 100 µM each time.
Regarding `COc1ccc(C2C=C(c3ccc4c(c3)OCO4)Oc3c2c(=O)oc2ccccc32)cc1OC` (configuration not stated), the TGI in assay [1] was over 100 µM; in assay [2], over 100 µM; in assay [10] it was over 100 µM; in assay [3], 2.26 µM; in [4], over 100 µM; in [5], over 100 µM. The TGI is over 100 µM in assay [6], over 100 µM in assay [7] and 9.6 µM in [8].
Regarding `COc1ccc(Nc2cc(C)nc(NCCCNc3ccnc4cc(Cl)ccc34)n2)cc1`, the GI50 is 1.67 µM in assay [1]; 1.58 µM in assay [2]; 1.65 µM in assay [3]; 1.03 µM in assay [4]; 1.65 µM in assay [5]; 1.88 µM in assay [6]. Also, the values for the GI50 in assay [7], in [8] and in assay [9] were 1.16 µM, 2.08 µM and 1.68 µM, respectively. For the same compound, the TGI in assay [1] is 3.26 µM; in assay [2], 3.22 µM; in assay [3] it was 3.45 µM; in [4] it was 2.49 µM; in [5] it was 3.93 µM; in assay [6], 3.58 µM. Also, the values for the TGI in [7], in [8] and in assay [9] were 2.74 µM, 5.17 µM and 3.69 µM, respectively.
With `COc1cc(/C=C2\C[C@H]3[C@@H]4CC=C5C[C@@H](O)CC[C@]5(C)[C@H]4CC[C@]3(C)[C@H]2O)ccc1OCCCn1ccnc1`, the GI50 was 1.23 µM in assay [1]; 8.74 µM in assay [2]; 6.06 µM in [10]; 8.22 µM in [3]; 3.45 µM in assay [5]; 1.82 µM in assay [6]. In addition, the GI50 in assay [7] is 2.63 µM; in assay [8], 4.09 µM; in [9], 17.7 µM. The TGI was 3.09 µM in assay [1]; over 50 µM in assay [2]; over 50 µM in [10]; 16.1 µM in assay [3]; 20 µM in [5]; 7.2 µM in assay [6]. Further, the TGI in assay [7] is 27.7 µM; in assay [8], 15.2 µM; in [9], over 50 µM.
